For orientation: inhibition means the relative decrease from the control value, in per cent.

The values below come from ChEMBL document CHEMBL3875187, “Structure-activity relationship study of a small cyclic peptide H-c[Lys-Pro-Glu]-Arg-OH: a potent inhibitor of Vascular Endothelial Growth Factor interaction with Neuropilin-1” (Bioorg Med Chem, 2017).

Positions of bridges follow the written chain, without caps; N, C: chain ends. Non-standard residues stand in square brackets, D forms with d. Residues, ends and D or L forms follow the SMILES beside them. Orn = NCCC[C@H](N)C(=O)O

Data set [1] concerns the target Neuropilin-1 (Rattus norvegicus) (UniProt Q9QWJ9). As to the kind of experiment: Inhibition of biotin labelled VEGF165 binding to rat recombinant NRP-1/Fc chimeric protein at 0.3 uM incubated for overnight by competitive ELISA method relative to control. A general note: An ELISA detects its analyte on a solid surface through an enzyme-linked reagent.
Data set [2] has the same target. The data set is described as follows: Inhibition of biotin-labelled VEGF165 binding to rat recombinant NRP-1/Fc chimeric protein at 10 uM incubated for overnight by competitive ELISA method relative to control.
For data set [3] the target is unchanged. As to the kind of experiment: Inhibition of biotin-labelled VEGF165 binding to rat recombinant NRP-1/Fc chimeric protein at 3 uM incubated for overnight by competitive ELISA method relative to control.
For data set [4] the target is unchanged. The data set is described as follows: Inhibition of biotin-labelled VEGF165 binding to rat recombinant NRP-1/Fc chimeric protein at 1 uM incubated for overnight by competitive ELISA method relative to control.
Data set [5] addresses Neuropilin-1 (Rattus norvegicus, UniProt Q9QWJ9). As to the kind of experiment: Inhibition of biotin labelled VEGF165 binding to rat recombinant NRP-1/Fc chimeric protein incubated for overnight by competitive ELISA method.
Data set [6] can be described thus: Cytotoxicity against HUVEC at 10 to 1000 uM measured after 24 to 96 hrs by MTS assay. The data set is classed as toxicity, cell-based. To be noted: human. In general terms: Formazan colour is commonly taken as a measure of viable cells.
Data set [7] is described as follows: Cytotoxicity against human MDA-MB-231 cells at 10 to 1000 uM measured after 24 to 96 hrs by MTS assay. The following applies: mda-mb-231, 1000 µM. In kind it is toxicity, cell-based.

Regarding `N=C(N)NCCC[C@H](NC(=O)CC[C@@H]1NC(=O)[C@H]2CCCN2C(=O)[C@@H](N)CCCCNC(=O)CC[C@@H](C(=O)N[C@@H](CCCNC(=N)N)C(=O)O)NC(=O)[C@H]2CCCN2C(=O)[C@H](CCCCN)NC1=O)C(=O)O`, the inhibition in data set [1] turned out to be 30.1%; in data set [2] it was 86.8%; in data set [3], 72.2%; in data set [4], 46.6%. Moreover, the figures for the IC50 in data set [5] (read-out: IC50) and in data set [5] (read-out: pIC50 (converted)) were 890 nM and 1000 nM, respectively.

`N=C(N)NCCC[C@H](NC(=O)[C@@H]1CCC(=O)NCCCC[C@@H](N)C(=O)N2CCC[C@H]2C(=O)N1)C(=O)O` (H-[dK]PER-OH; lactam 1-3): the results for the inhibition in data set [2], in data set [3] and in data set [4] were 4%, 2.3% and 1.1%, respectively. The IC50 in data set [5] (read-out: IC50) is greater than 10000 nM.

Regarding `N=C(N)NCCC[C@H](NC(=O)[C@@H]1CCC(=O)NCCC[C@H](N)C(=O)N2CCC[C@H]2C(=O)N1)C(=O)O` (H-[Orn]PER-OH; lactam 1-3), the inhibition was 14.6% in data set [1], 46.6% in data set [2], 35.4% in data set [3] and 27.8% in data set [4]. The IC50 in data set [5] (read-out: IC50) was greater than 10000 nM.

Regarding `N=C(N)NCCC[C@H](NC(=O)[C@@H]1CC(=O)NCCCC[C@H](N)C(=O)N2CCC[C@H]2C(=O)N1)C(=O)O` (H-KPDR-OH; lactam 1-3), the inhibition amounted to 14.7% in data set [2], 12.5% in data set [3] and 11.8% in data set [4]. Further, the IC50 in data set [5] (read-out: IC50) is greater than 10000 nM.

With `N=C(N)NCCC[C@H](NC(=O)[C@@H]1CCCCNC(=O)CC[C@H](N)C(=O)N2CCC[C@H]2C(=O)N1)C(=O)O` (H-EPKR-OH; lactam 1-3), the Activity entry in data set [6] and in data set [7] was “Non-Toxic” throughout. In addition, the inhibition in data set [1] is 68.3%; in data set [2] it was 89%; in data set [3], 85.4%; in data set [4] it was 79%. For the same molecule, the IC50 in data set [5] (read-out: IC50) was 160 nM.
